# Reference: paper PMC11474975, “Enzyme Dynamics Determine the Potency and Selectivity of Inhibitors Targeting Disease-Transmitting Mosquitoes” (ACS Infectious Diseases, 2024)
# Read-outs that look alike come from different tables or passages of the source.
# Assays:
# [1] = tested on: AChE1 from Anopheles gambiae (AgAChE1); test: AgAChE1 inhibition, IC50 (Ellman assay); format: biochemical; settings: class from experimental IC50
# [2] = tested on: AChE1 from Anopheles gambiae (AgAChE1); settings: taken from previous publications; cited from earlier work
# hAChE [3] = settings: taken from previous publications; cited from earlier work
# mAChE [4] = target: T1, mAChE (Mus musculus, UniProt P21836); test: mAChE inhibition, IC50 (Ellman assay); settings: for S.R. (selectivity ratio) mAChE vs AgAChE1: IC50 mAChE / IC50 AgAChE1; for mAChE inhibitor class (Strong/Weak): class from experimental IC50
# T1 sequence (P21836 32-614): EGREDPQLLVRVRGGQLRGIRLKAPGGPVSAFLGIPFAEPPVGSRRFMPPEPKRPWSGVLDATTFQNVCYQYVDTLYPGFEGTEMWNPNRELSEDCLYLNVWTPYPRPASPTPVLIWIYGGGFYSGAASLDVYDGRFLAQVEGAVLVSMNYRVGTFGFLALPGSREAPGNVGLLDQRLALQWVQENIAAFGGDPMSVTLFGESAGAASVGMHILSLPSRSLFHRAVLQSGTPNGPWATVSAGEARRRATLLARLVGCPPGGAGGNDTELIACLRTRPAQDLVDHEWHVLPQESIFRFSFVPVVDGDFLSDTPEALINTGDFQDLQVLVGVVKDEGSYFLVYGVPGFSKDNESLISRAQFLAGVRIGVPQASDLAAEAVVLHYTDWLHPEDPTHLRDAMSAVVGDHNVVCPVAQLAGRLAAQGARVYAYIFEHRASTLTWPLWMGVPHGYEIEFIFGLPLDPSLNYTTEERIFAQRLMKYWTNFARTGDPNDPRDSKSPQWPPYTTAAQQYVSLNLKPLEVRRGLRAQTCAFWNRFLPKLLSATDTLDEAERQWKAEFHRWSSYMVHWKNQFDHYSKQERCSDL
# Method: Dilution series of eight concentrations were prepared (0.001–1000 and 0.1–1000 μM, respectively). Enzymatic activity was measured using the Ellman assay (adapted to a 96-well format) with secreted nonpurified protein in growth medium. A QIAgility robotic benchtop instrument (Qiagen) was used for automatic liquid handling when setting up assay plates. The assay was then performed at 30 °C in a final volume of 200 mL 0.1 M phosphate buffer (pH 7.4) containing 0.2 mM 5,5′-thiobis(2-nitrobenzoic acid) and 1 mM acetylcholine iodide. Changes in the wells’ absorbance at 412 nm were recorded over 60 s using a FlexStation 3 Multi-Mode Microplate Reader (Molecular Devices) to monitor the enzymatic reaction. Eight positive controls of uninhibited enzyme were assumed to represent 100% activity and used to determine the average slope. […] Nonlinear regression (curve fitting) in GraphPad Prism[54] was used to calculate IC50 values. The log[inhibitor] vs response variable slope equation was fitted using three parameters. Three independent replicates were used for the IC50 determination.
# hAChE [5] = test: hAChE inhibition, IC50; format: biochemical, Homo sapiens
# mAChE [6] = target: T1, mAChE; design: made in house; method as in PMID 30339371, PMID 27598521, PMID 22140425; settings: taken from previous publications; cited from earlier work
SMILES,AgAChE1 inhibitor class (Strong/Weak) [1],IC50 [2] [µM],IC50 (hAChE [3]) [µM],IC50 (mAChE [4]) [µM],S.R. (selectivity ratio) mAChE vs AgAChE1 (mAChE [4]),mAChE inhibitor class (Strong/Weak) (mAChE [4]),S.R. (selectivity ratio) hAChE vs AgAChE1 (hAChE [5]),IC50 (mAChE [6]) [µM]
O=C(COc1ccc(Cl)cc1Cl)Nc1ccc(CN2CCCCC2)cc1 [AL137],"Strong (strong and weak inhibitors of AgAChE1 from both classes (IC50 < 1 μM and IC50 > 5 μM, respectively)",0.26,,,,,,
COc1ccc(NC(=S)NCCN2CCC(C)CC2)cc1Cl [AL201],"Strong (strong and weak inhibitors of AgAChE1 from both classes (IC50 < 1 μM and IC50 > 5 μM, respectively)",0.96,12,26,27,"Weak (strong and weak inhibitors of AgAChE1 from both classes (IC50 < 1 μM and IC50 > 5 μM, respectively)",13,
COc1ccccc1NC(=S)NCCN(C)C [AL237],"Weak (strong and weak inhibitors of AgAChE1 from both classes (IC50 < 1 μM and IC50 > 5 μM, respectively)",7.1,120,217,31,"Weak (strong and weak inhibitors of AgAChE1 from both classes (IC50 < 1 μM and IC50 > 5 μM, respectively)",17,
O=C(COc1ccc(-c2ccccc2)cc1)NCCCN1CCCCC1 [AL264],"Weak (strong and weak inhibitors of AgAChE1 from both classes (IC50 < 1 μM and IC50 > 5 μM, respectively)",10,57,,6,"Weak (strong and weak inhibitors of AgAChE1 from both classes (IC50 < 1 μM and IC50 > 5 μM, respectively)",6,61
CCN1CCN(C2CCN(C(=O)COc3ccc(-c4ccc(OC)cc4)cc3)CC2)CC1 [AL284],"Strong (strong and weak inhibitors of AgAChE1 from both classes (IC50 < 1 μM and IC50 > 5 μM, respectively)",0.4,18,,73,"Weak (strong and weak inhibitors of AgAChE1 from both classes (IC50 < 1 μM and IC50 > 5 μM, respectively)",45,29
